{"source": "paper PMC9388626", "about": "“STUB1 is an intracellular checkpoint for interferon gamma sensing” (Scientific Reports, 2022)", "test_system": "B16-F10 cells", "test": "Western blot, protein expression after 24 h IFNγ", "assay_type": "cell-based, murine", "method": "Parental, CRISPR-edited or biologic-overexpressed tumour cells were seeded in a cell density of 60,000 (B16-F10), 150,000 (CT26), 100,000 (A375), or 200,000 (A549) per well in 12-well plate filled with 0.8 ml culture media + 10% FBS. After overnight incubation, the culture media were replaced with 1 ml fresh media supplemented with 10% FBS and the designated concentration of the recombinant mouse IFNγ (R&D Systems, #485-MI-100) or recombinant human IFNγ (R&D Systems, #285-IF-100). The cells were stimulated with the cytokine for 24 h before they were harvested by trypsinization for flow cytometry, western blot, or qPCR analysis (6 h treatment).\nCells were dissociated from the wells with 0.25% trypsin (Gibco, 25200056). After rinsing with 0.5 ml PBS, the cell pellets were lysed with chilled cell lysis buffer (Cell Signaling Technology, #9803) supplemented with Halt protease inhibitor cocktail (Thermo Scientific, #78430) and phosphatase inhibitor (Sigma-Aldrich, # 4906837001) for 30 min with intermittent vortexing. The lysate was transferred into PCR-strip tubes and sonicated in a chilled water bath sonicator (QSonica). Lysates were clarified by centrifugation at 15,000 rpm at 4 °C for 15 min. Protein concentration was determined using BCA protein assay kit (Pierce, #23225). The lysates were mixed with LDS sample buffer (Life Technologies, NP0008) and sample reducing agent (Life Technologies, NP0009), followed by heating at 70 °C for 10 min to fully denature the protein. […] Membrane blots were pre-stained with total protein stain (LI-COR, # 926-11016) and imaged with Odyssey CLx. […] The blots were finally probed, for overnight at 4 °C, with the appropriate primary antibodies diluted in Intercept (TBS) blocking buffer supplemented with 0.1% (v/v) Tween-20, followed by the secondary antibodies (IRDye 800CW donkey anti-rabbit or anti-mouse IgG, LI-COR) for 1 h at room temperature. Fluorescent signals were imaged and quantified using Odyssey CLx and Image Studio v5.0. Primary antibodies used were: STUB1/CHIP (Cell Signaling Technology, #2080, 1:2000 dilution), STAT1 (Cell Signaling Technology, #14995, 1:10,000 dilution), phospho-Tyr701-STAT1 (Cell Signaling Technology, #9167, 1:2000 dilution), STAT2 (Cell Signaling Technology, #72604, 1:2000 dilution), IRF1 (Cell Signaling Technology, #8478, 1:2000 dilution), PSMB8 (Cell Signaling Technology, #13635, 1:2000 dilution), PSMB9 (Abcam, ab184172, 1:10,000 dilution), and PSMB10 (Abcam, ab183506, 1:10,000 dilution)."}
{"substance": "IFNγ", "values": [{"measurement": "Protein expression of STAT1, STAT2, IRF1", "setting": "Stub1-null B16-F10, 24 h IFNγ", "value": "upregulation of STAT1, STAT2, and IRF1 after 24 h stimulation with IFNγ"}]}
{"substance": "gStub1 #1 (guide GCATTGCTAAGAAGAAGCGC; chemistry not given here)", "values": [{"measurement": "PSMB8 (Fig. 1e)", "setting": "IFNg 0.01 ng/ml", "value": 171356}, {"measurement": "PSMB9 (Fig. 1e)", "setting": "IFNg 0.01 ng/ml", "value": 214373}, {"measurement": "PSMB10 (Fig. 1e)", "setting": "IFNg 0.01 ng/ml", "value": 83490}, {"measurement": "STAT1 (Fig. 1e)", "setting": "IFNg 0.01 ng/ml", "value": 156019}, {"measurement": "PSMB8 (Fig. 1e)", "setting": "IFNg 0.03 ng/ml", "value": 202198}, {"measurement": "PSMB9 (Fig. 1e)", "setting": "IFNg 0.03 ng/ml", "value": 947224}, {"measurement": "PSMB10 (Fig. 1e)", "setting": "IFNg 0.03 ng/ml", "value": 557217}, {"measurement": "STAT1 (Fig. 1e)", "setting": "IFNg 0.03 ng/ml", "value": 430481}, {"measurement": "PSMB8 (Fig. 1e)", "setting": "IFNg 0.10 ng/ml", "value": 232103}, {"measurement": "PSMB9 (Fig. 1e)", "setting": "IFNg 0.10 ng/ml", "value": 2077116}, {"measurement": "PSMB10 (Fig. 1e)", "setting": "IFNg 0.10 ng/ml", "value": 2055449}, {"measurement": "STAT1 (Fig. 1e)", "setting": "IFNg 0.10 ng/ml", "value": 714350}, {"measurement": "PSMB8 (Fig. 1e)", "setting": "IFNg 0.30 ng/ml", "value": 334603}, {"measurement": "PSMB9 (Fig. 1e)", "setting": "IFNg 0.30 ng/ml", "value": 3663399}, {"measurement": "PSMB10 (Fig. 1e)", "setting": "IFNg 0.30 ng/ml", "value": 3429074}, {"measurement": "STAT1 (Fig. 1e)", "setting": "IFNg 0.30 ng/ml", "value": 1243340}, {"measurement": "PSMB8 (Fig. 1e)", "setting": "IFNg 1.00 ng/ml", "value": 529221}, {"measurement": "PSMB9 (Fig. 1e)", "setting": "IFNg 1.00 ng/ml", "value": 4935730}, {"measurement": "PSMB10 (Fig. 1e)", "setting": "IFNg 1.00 ng/ml", "value": 4476630}, {"measurement": "STAT1 (Fig. 1e)", "setting": "IFNg 1.00 ng/ml", "value": 1537016}, {"measurement": "PSMB8 (Fig. 1e)", "setting": "IFNg Nil", "value": 173338}, {"measurement": "PSMB9 (Fig. 1e)", "setting": "IFNg Nil", "value": 17374}, {"measurement": "PSMB10 (Fig. 1e)", "setting": "IFNg Nil", "value": 18816}, {"measurement": "STAT1 (Fig. 1e)", "setting": "IFNg Nil", "value": 22848}]}
